In this experiment the target is Thromboxane-A synthase (Oryctolagus cuniculus). The experiment can be described thus: Inhibition of Thromboxane A2 synthetase in rabbit platelets.
As a reminder, the IC50 is the point on the concentration scale where inhibition reaches its midpoint. Higher therefore signals lower potency. The compound `CCOC(=O)C1=C(Cn2ccnc2)N=C(C)C(C(=O)OC)C1c1cccc(C(F)(F)F)c1Cl` (stereo not drawn) came in with an IC50 of 16 µM.

On to `CCOC(=O)C1=C(Cn2ccnc2)N=C(C)C(C(=O)OC)C1c1ccccc1[N+](=O)[O-]` (stereo not drawn), for which it took 3.2 µM to reach half-maximal inhibition (IC50).

Compound `CCOC(=O)C1=C(CCn2ccnc2)N=C(C)C(C(=O)OCC)C1c1cccc([N+](=O)[O-])c1` (stereo not drawn) yielded an IC50 of 11 µM.

The compound `CCOC(=O)C1=C(Cn2ccnc2)N=C(C)C(C(=O)OC)C1c1cccc([N+](=O)[O-])c1` (stereo not drawn) showed an IC50 of 5 µM.

Regarding `CCOC(=O)C1=C(COCCn2ccnc2)N=C(C)C(C(=O)OC)C1c1cccc([N+](=O)[O-])c1` (stereo not drawn), inhibition was half-maximal at 115 µM (IC50).

`CCOC(=O)C1=C(Cn2ccnc2)N=C(C)C(C(=O)OCC)C1c1cccc([N+](=O)[O-])c1` (stereo not drawn) showed an IC50 of 1.4 µM.

`CCOC(=O)C1=C(Cn2ccnc2)N=C(C)C(C(=O)OC(C)C)C1c1cccc([N+](=O)[O-])c1` (stereo not drawn) had a half-maximal inhibitory concentration (IC50) of 2 µM.

For the compound `CCOC(=O)C1=C(Cn2ccnc2)N=C(C)C(C(=O)OC(C)(C)C)C1c1cccc([N+](=O)[O-])c1` (stereo not drawn), the IC50 was found to be 23 µM.

The record behind these values is BindingDB's records for doi:10.1021/jm00164a028 (Wyeth Research, 1990).
